Measurements from patent US8802895B2, “Amide derivatives of benzene-sulfonanilide, pharmaceutical composition thereof and method for cancer treatment using the same” (Cleveland State University, priority 2010, dated 2014).

Experiments:
Format in all cases: cell-based
T-47D = test: NCIDTP 60 cancer cell lines screening, Breast Cancer panel
CAKI-1 = test: NCIDTP 60 cancer cell lines screening, Renal Cancer panel
HCT-15 = test: NCIDTP 60 cancer cell lines screening, Colon Cancer panel
NCI-H23 = test: NCIDTP 60 cancer cell lines screening, Non-Small Cell Lung Cancer panel
BT-549 = test: NCIDTP 60 cancer cell lines screening, Breast Cancer panel
HCC-2998 = test: NCIDTP 60 cancer cell lines screening, Colon Cancer panel
HOP-92 = test: NCIDTP 60 cancer cell lines screening, Non-Small Cell Lung Cancer panel
SK-OV-3 = test: NCIDTP 60 cancer cell lines screening, Ovarian Cancer panel
SF-295 = test: NCIDTP 60 cancer cell lines screening, CNS Cancer panel
U251 = test: as above
MALME-3M = test: NCIDTP 60 cancer cell lines screening, Melanoma panel
M14 = test: as above
UACC-257 = test: as above
NCI-H460 = test: NCIDTP 60 cancer cell lines screening, Non-Small Cell Lung Cancer panel
SK-MEL-2 = test: NCIDTP 60 cancer cell lines screening, Melanoma panel
MOLT-4 = test: NCIDTP 60 cancer cell lines screening, Leukemia panel
SK-MEL-28 = test: NCIDTP 60 cancer cell lines screening, Melanoma panel

Cc1ccc(C)c(COc2cc(NC(=O)c3ccc4c(c3)OCO4)ccc2N(C)S(C)(=O)=O)c1 [Compound #10, Benzo[1,3]dioxole-5-carboxylic acid [3-(2,5-dimethyl-benzyloxy)-4-(methanesulfonyl-methyl-amino)-phenyl]-amide]
CC50 (T-47D; Homo sapiens, T47D, read-out: LC50): > 100 µM
GI50 (T-47D; Homo sapiens, T47D, T-47D): 0.682 µM
TGI (T-47D; T-47D): >1.00E−4 Molar
Percent Growth (T-47D; T-47D, Log10 Concentration −4.0 Molar): 27%
Percent Growth (T-47D; T-47D, Log10 Concentration −5.0 Molar): 29%
Percent Growth (T-47D; T-47D, Log10 Concentration −6.0 Molar): 45%
Percent Growth (T-47D; T-47D, Log10 Concentration −7.0 Molar): 77%
Percent Growth (T-47D; T-47D, Log10 Concentration −8.0 Molar): 89%
TGI (CAKI-1; CAKI-1): >1.00E−4 Molar
Percent Growth (CAKI-1; CAKI-1, Log10 Concentration −4.0 Molar): 5%
Percent Growth (CAKI-1; CAKI-1, Log10 Concentration −5.0 Molar): 2%
Percent Growth (CAKI-1; CAKI-1, Log10 Concentration −6.0 Molar): 16%
Percent Growth (CAKI-1; CAKI-1, Log10 Concentration −7.0 Molar): 54%
Percent Growth (CAKI-1; CAKI-1, Log10 Concentration −8.0 Molar): 100%
GI50 (CAKI-1; Homo sapiens, CAKI-1): 0.126 µM
CC50 (CAKI-1; Homo sapiens, CAKI-1, read-out: LC50): > 100 µM
TGI (HCT-15; HCT-15): >1.00E−4 Molar
Percent Growth (HCT-15; HCT-15, Log10 Concentration −4.0 Molar): 17%
Percent Growth (HCT-15; HCT-15, Log10 Concentration −5.0 Molar): 17%
Percent Growth (HCT-15; HCT-15, Log10 Concentration −6.0 Molar): 22%
Percent Growth (HCT-15; HCT-15, Log10 Concentration −7.0 Molar): 74%
Percent Growth (HCT-15; HCT-15, Log10 Concentration −8.0 Molar): 96%
GI50 (HCT-15; Homo sapiens, HCT-15): 0.289 µM
CC50 (HCT-15; Homo sapiens, HCT-15, read-out: LC50): > 100 µM
GI50 (NCI-H23; Homo sapiens, NCI-H23): 0.162 µM
CC50 (NCI-H23; Homo sapiens, NCI-H23, read-out: LC50): > 100 µM
TGI (NCI-H23; NCI-H23): >1.00E−4 Molar
Percent Growth (NCI-H23; NCI-H23, Log10 Concentration −4.0 Molar): 2%
Percent Growth (NCI-H23; NCI-H23, Log10 Concentration −5.0 Molar): 3%
Percent Growth (NCI-H23; NCI-H23, Log10 Concentration −6.0 Molar): 5%
Percent Growth (NCI-H23; NCI-H23, Log10 Concentration −7.0 Molar): 62%
Percent Growth (NCI-H23; NCI-H23, Log10 Concentration −8.0 Molar): 97%
TGI (BT-549; BT-549): >1.00E−4 Molar
Percent Growth (BT-549; BT-549, Log10 Concentration −4.0 Molar): 21%
Percent Growth (BT-549; BT-549, Log10 Concentration −5.0 Molar): 13%
Percent Growth (BT-549; BT-549, Log10 Concentration −6.0 Molar): 45%
Percent Growth (BT-549; BT-549, Log10 Concentration −7.0 Molar): 70%
Percent Growth (BT-549; BT-549, Log10 Concentration −8.0 Molar): 92%
GI50 (BT-549; Homo sapiens, BT-549): 0.656 µM
CC50 (BT-549; Homo sapiens, BT-549, read-out: LC50): > 100 µM
TGI (HCC-2998; HCC-2998): 3.92E−7 Molar
Percent Growth (HCC-2998; HCC-2998, Log10 Concentration −4.0 Molar): −64%
Percent Growth (HCC-2998; HCC-2998, Log10 Concentration −5.0 Molar): −61%
Percent Growth (HCC-2998; HCC-2998, Log10 Concentration −6.0 Molar): −40%
Percent Growth (HCC-2998; HCC-2998, Log10 Concentration −7.0 Molar): 58%
Percent Growth (HCC-2998; HCC-2998, Log10 Concentration −8.0 Molar): 99%
CC50 (HCC-2998; Homo sapiens, HCC 2998, read-out: LC50): 2.97 µM
GI50 (HCC-2998; Homo sapiens, HCC-2998): 0.12 µM
TGI (HOP-92; HOP-92): >1.00E−4 Molar
Percent Growth (HOP-92; HOP-92, Log10 Concentration −4.0 Molar): 37%
Percent Growth (HOP-92; HOP-92, Log10 Concentration −5.0 Molar): 39%
Percent Growth (HOP-92; HOP-92, Log10 Concentration −6.0 Molar): 62%
Percent Growth (HOP-92; HOP-92, Log10 Concentration −7.0 Molar): 62%
Percent Growth (HOP-92; HOP-92, Log10 Concentration −8.0 Molar): 78%
GI50 (HOP-92; Homo sapiens, HOP-92): 0.0322 µM
CC50 (HOP-92; Homo sapiens, HOP-92, read-out: LC50): > 100 µM
GI50 (SK-OV-3; Homo sapiens, SK-OV-3): 0.285 µM
CC50 (SK-OV-3; Homo sapiens, SK-OV-3, read-out: LC50): > 100 µM
TGI (SK-OV-3; SK-OV-3): >1.00E−4 Molar
Percent Growth (SK-OV-3; SK-OV-3, Log10 Concentration −4.0 Molar): 5%
Percent Growth (SK-OV-3; SK-OV-3, Log10 Concentration −5.0 Molar): 5%
Percent Growth (SK-OV-3; SK-OV-3, Log10 Concentration −6.0 Molar): 8%
Percent Growth (SK-OV-3; SK-OV-3, Log10 Concentration −7.0 Molar): 85%
Percent Growth (SK-OV-3; SK-OV-3, Log10 Concentration −8.0 Molar): 99%
GI50 (SF-295; Homo sapiens, SF-295): 0.0983 µM
CC50 (SF-295; Homo sapiens, SF-295, read-out: LC50): > 100 µM
TGI (SF-295; SF-295): 6.26E−7 Molar
Percent Growth (SF-295; SF-295, Log10 Concentration −4.0 Molar): −15%
Percent Growth (SF-295; SF-295, Log10 Concentration −5.0 Molar): −16%
Percent Growth (SF-295; SF-295, Log10 Concentration −6.0 Molar): −13%
Percent Growth (SF-295; SF-295, Log10 Concentration −7.0 Molar): 50%
Percent Growth (SF-295; SF-295, Log10 Concentration −8.0 Molar): 92%
CC50 (U251; Homo sapiens, U-251, read-out: LC50): > 100 µM
GI50 (U251; Homo sapiens, U-251, U251): 0.266 µM
TGI (U251; U251): 2.19E−5 Molar
Percent Growth (U251; U251, Log10 Concentration −4.0 Molar): −16%
Percent Growth (U251; U251, Log10 Concentration −5.0 Molar): 8%
Percent Growth (U251; U251, Log10 Concentration −6.0 Molar): 15%
Percent Growth (U251; U251, Log10 Concentration −7.0 Molar): 76%
Percent Growth (U251; U251, Log10 Concentration −8.0 Molar): 97%
GI50 (MALME-3M; Homo sapiens, Malme-3M): 0.229 µM
CC50 (MALME-3M; Homo sapiens, Malme-3M, read-out: LC50): > 100 µM
TGI (MALME-3M; MALME-3M): >1.00E−4 Molar
Percent Growth (MALME-3M; MALME-3M, Log10 Concentration −4.0 Molar): 49%
Percent Growth (MALME-3M; MALME-3M, Log10 Concentration −5.0 Molar): 40%
Percent Growth (MALME-3M; MALME-3M, Log10 Concentration −6.0 Molar): 31%
Percent Growth (MALME-3M; MALME-3M, Log10 Concentration −7.0 Molar): 61%
Percent Growth (MALME-3M; MALME-3M, Log10 Concentration −8.0 Molar): 87%
GI50 (M14; Homo sapiens, M14): 0.0757 µM
CC50 (M14; Homo sapiens, M14, read-out: LC50): > 100 µM
TGI (M14; M14): 6.69E−7 Molar
Percent Growth (M14; M14, Log10 Concentration −4.0 Molar): −29%
Percent Growth (M14; M14, Log10 Concentration −5.0 Molar): −45%
Percent Growth (M14; M14, Log10 Concentration −6.0 Molar): −9%
Percent Growth (M14; M14, Log10 Concentration −7.0 Molar): 45%
Percent Growth (M14; M14, Log10 Concentration −8.0 Molar): 90%
GI50 (UACC-257; Homo sapiens, UACC-257): 0.144 µM
CC50 (UACC-257; Homo sapiens, UACC-257, read-out: LC50): > 100 µM
TGI (UACC-257; UACC-257): >1.00E−4 Molar
Percent Growth (UACC-257; UACC-257, Log10 Concentration −4.0 Molar): 13%
Percent Growth (UACC-257; UACC-257, Log10 Concentration −5.0 Molar): 29%
Percent Growth (UACC-257; UACC-257, Log10 Concentration −6.0 Molar): 32%
Percent Growth (UACC-257; UACC-257, Log10 Concentration −7.0 Molar): 53%
Percent Growth (UACC-257; UACC-257, Log10 Concentration −8.0 Molar): 88%
GI50 (NCI-H460; Homo sapiens, NCI-H460): 0.184 µM
CC50 (NCI-H460; Homo sapiens, NCI-H460, read-out: LC50): > 100 µM
TGI (NCI-H460; NCI-H460): 7.44E−7 Molar
Percent Growth (NCI-H460; NCI-H460, Log10 Concentration −4.0 Molar): −24%
Percent Growth (NCI-H460; NCI-H460, Log10 Concentration −5.0 Molar): −10%
Percent Growth (NCI-H460; NCI-H460, Log10 Concentration −6.0 Molar): −11%
Percent Growth (NCI-H460; NCI-H460, Log10 Concentration −7.0 Molar): 72%
Percent Growth (NCI-H460; NCI-H460, Log10 Concentration −8.0 Molar): 95%
GI50 (SK-MEL-2; Homo sapiens, SK-MEL-2): 0.0897 µM
CC50 (SK-MEL-2; Homo sapiens, SK-MEL-2, read-out: LC50): > 100 µM
TGI (SK-MEL-2; SK-MEL-2): 6.16E−7 Molar
Percent Growth (SK-MEL-2; SK-MEL-2, Log10 Concentration −4.0 Molar): −18%
Percent Growth (SK-MEL-2; SK-MEL-2, Log10 Concentration −5.0 Molar): −12%
Percent Growth (SK-MEL-2; SK-MEL-2, Log10 Concentration −6.0 Molar): −13%
Percent Growth (SK-MEL-2; SK-MEL-2, Log10 Concentration −7.0 Molar): 48%
Percent Growth (SK-MEL-2; SK-MEL-2, Log10 Concentration −8.0 Molar): 99%
GI50 (MOLT-4; Homo sapiens, MOLT-4): 0.163 µM
CC50 (MOLT-4; Homo sapiens, MOLT-4, read-out: LC50): > 100 µM
TGI (MOLT-4; MOLT-4): >1.00E−4 Molar
Percent Growth (MOLT-4; MOLT-4, Log10 Concentration −4.0 Molar): 13%
Percent Growth (MOLT-4; MOLT-4, Log10 Concentration −5.0 Molar): 7%
Percent Growth (MOLT-4; MOLT-4, Log10 Concentration −6.0 Molar): 12%
Percent Growth (MOLT-4; MOLT-4, Log10 Concentration −7.0 Molar): 80%
Percent Growth (MOLT-4; MOLT-4, Log10 Concentration −8.0 Molar): 99%
GI50 (SK-MEL-28; Homo sapiens, SK-MEL-28): 0.692 µM
CC50 (SK-MEL-28; Homo sapiens, SK-MEL-28, read-out: LC50): > 100 µM
TGI (SK-MEL-28; SK-MEL-28): >1.00E−4 Molar
Percent Growth (SK-MEL-28; SK-MEL-28, Log10 Concentration −4.0 Molar): 50%
Percent Growth (SK-MEL-28; SK-MEL-28, Log10 Concentration −5.0 Molar): 49%
Percent Growth (SK-MEL-28; SK-MEL-28, Log10 Concentration −6.0 Molar): 44%
Percent Growth (SK-MEL-28; SK-MEL-28, Log10 Concentration −7.0 Molar): 83%
Percent Growth (SK-MEL-28; SK-MEL-28, Log10 Concentration −8.0 Molar): 91%
